Experimental data taken from patent US20190345087A1, “BIO-STABLE C[…] AND METHODS FOR ENHANCING THEIR PHYSIOLOGICAL CONCENTRATION” (Teewinot Technologies Limited, priority 2016, published 2019).
Values after ≈ are worked out from the molar mass of the structure shown.

Columns and labels:
[1] = Chemical Stability Assay - Teorell-Stenhagen Buffer; type: physicochemical; conditions: for Teorell-Stenhagen Buffer pH 3.5 t1/2 / Teorell-Stenhagen Buffer pH 4.5 t1/2 / Teorell-Stenhagen Buffer pH 5.5 t1/2 / Teorell-Stenhagen Buffer pH 6.5 t1/2 / Teorell-Stenhagen Buffer pH 7.5 t1/2 / Teorell-Stenhagen Buffer pH 8.5 t1/2: 10 μM, 0.5% DMSO, 20° C.
Method: (§1) CBD methyl ether and CBD difluoromethyl ether were synthesized using a synthetic protocol described above and the identities of the desired ether products were confirmed by nuclear magnetic resonance spectroscopy as well as HPLC-MS. CBD methyl and/or CBD difluoromethyl ethers were incubated in individual eppendorf tubes in the following mediums: (a) simulated gastric fluid (SGF) with and without pepsin; (b) microsomal extract; (c) S9 fraction (hepatic); (d) Plasma; (e) Teorell-Stenhagen Buffer at pH 3.5, 4.5, 5.5, 6.5, 7.5, and 8.5; and (f) simulated intestinal fluid (SIF) with and without pancreatin. Each incubation mixture contained up to 0.5% of an organic solvent. DMSO is the organic solvent when SGF and Teorell-Stenhagen Buffer was used and acetonitrile is the organic solvent for incubation mixtures in microsomal extract, S9 fraction, and plasma. The concentration of CBD methyl and/or CBD difluoromethyl ether is 10 μM for stability studies in SGF and Teorell-Stenhagen Buffer. However, the concentration of CBD methyl and/or CBD difluoromethyl ether is 1 μM for stability studies in microsomal extract, S9 fraction, and plasma.
[…] Aliquots were taken at fixed intervals of time, typically at 0, 5, 10, 15, 30, and 45 minutes, or at fixed intervals of 1 h, 1.5 h, 2 h, 4 h, 6 h, 8 h, 24 h, and 48 hours. At each interval of time, two aliquots of each sample were collected. Each aliquot was extracted with ethyl acetate. The ethyl acetate layer was evaporated using a stream of nitrogen gas and the resulting residue was dissolved in 1:1 mixture of 0.1% aqueous HOAc and acetonitrile and analyzed by reverse-phase HPLC-MS.

[2] = S9 Intrinsic Clearance Assay; type: in vitro ADME, Human
Method: as §1
(§2) Stability studies were performed by incubating CBD methyl ether and/or CBD difluoromethyl ether at 37 ° C. in the desired medium. Aliquots were taken at fixed intervals of time, typically at 0, 5, 10, 15, 30, and 45 minutes, or at fixed intervals of 1 h, 1.5 h, 2 h, 4 h, 6 h, 8 h, 24 h, and 48 hours. At each interval of time, two aliquots of each sample were collected. Each aliquot was extracted with ethyl acetate. The ethyl acetate layer was evaporated using a stream of nitrogen gas and the resulting residue was dissolved in 1:1 mixture of 0.1% aqueous HOAc and acetonitrile and analyzed by reverse-phase HPLC-MS.
The stability of CBD methyl ether and CBD difluoromethyl ether in the hepatic S9 fraction is illustrated in Table 3. Both the methyl and difluoromethyl ethers were reasonably stable in S9 fraction with half-lives for de-etherification being about 5 hours for the methyl ether and about 3 hours for the difluoromethyl ether.
Intrinsic clearance (CLint) is clearance of drug by the livers if the drug is not bound to serum proteins or dependent on blood flow for delivery to the livers. Intrinsic clearance (CLint) is influenced by the affinity of the drug for its metabolizing liver enzyme and the number of enzymes present. CLint is subject to saturation and governed by Michaelis-menten (non-linear) elimination kinetics. Intrinsic clearance can be constant at low concentration, but progressively decreases as enzyme sites become saturated. Drugs with a strong affinity for their metabolizing enzymes or for which there are a large number of enzymes would be more efficiently extracted by the liver and thus, have a high extraction ratio (EH).
The hepatic extraction ratio EH is a good measure of expected first-pass metabolic clearance from liver (typical first pass after oral administration). The hepatic extraction ratio (Eh) is represented as follows:
Hepatic clearance (CLH) is the volume of blood that is cleared of drug per unit time by the liver, and QH is the rate of blood flow to the liver.
The hepatic extraction ratio EH is particularly useful for separating compounds into low/medium/high metabolic stability categories. Unlike in vitro intrinsic microsomal clearance (CLint), EH is species-nonspecific, because in its calculation species differences like liver weight, body weight, liver blood flow, etc. are normalized out, so EH values can be directly compared across species.

[3] = Microsomal Intrinsic Clearance Assay; type: in vitro ADME, Human
Method: as §1, §2
In vitro intrinsic microsomal clearance studies were performed to understand the metabolic fate of CBD ethers, as well as to identify metabolites produced by the degradation of the inventive CBD ethers.
The liver is the most important site of drug metabolism in the body. Approximately 60% of marketed compounds are cleared by hepatic CYP-mediated metabolism. See Drug Aletab. Dispos., 27(11) (1999) 1350. Liver microsomes are a subcellular fraction of hepatocytes, and they contain membrane bound drug metabolizing enzymes, Microsomes can be used to determine the in vitro intrinsic clearance of a compound. The use of species-specific microsomes can be used to enable an understanding of interspecies differences in drug metabolism.

Plasma Stability Assay = type: in vitro ADME; conditions: 1 μM, 37 ° C.
Method: as §1, with “The concentration of CBD methyl and/or CBD difluoromethyl ether is 10 μM for stability studies in SGF and Teorell-Stenhagen Buffer. However, the concentration of CBD methyl and/or CBD difluoromethyl ether is 1 μM for stability studies in microsomal extract, S9 fraction, and plasma.” left out
Stability studies were performed by incubating CBD methyl ether and/or CBD difluoromethyl ether at 37 ° C. in the desired medium. […] The ethyl acetate layer was evaporated using a stream of nitrogen gas and the resulting residue was dissolved in 1:1 mixture of 0.1% aqueous HOAc and acetonitrile and analyzed by reverse-phase HPLC-MS.
The methyl and difluoromethyl ethers of CBD were stable to degradation in plasma. The half-life of degradation as measured by LC-MS for both ethers was greater than 400 minutes.

Solubility Assay - PBS = type: physicochemical; conditions: for solubility in phosphate buffered saline / Solubility (μM) in PBS 7.4: PBS pH 7.4; for Solubility (μM) in PBS 7.4 / Solubility (μM) in T-S 7.5: λ 280 nm; for Solubility (μM) in T-S 7.5: Teorell-Stenhagen buffer pH 7.5
[4] = Stability in simulated gastric fluid (SGF) with and without pepsin and simulated intestinal fluid (SIF) with and without pancreatin; conditions: for SGF t1/2: SGF with pepsin; for SGF t1/2 / SGF No Pepsin t1/2: pH 1.2; for SGF t1/2 / SGF No Pepsin t1/2 / SIF t1/2 / SIF No Pancreatin t1/2: 10 μM, 0.5% DMSO, 37° C.; for SGF No Pepsin t1/2: SGF without pepsin; for SIF t1/2: SIF with pancreatin; for SIF t1/2 / SIF No Pancreatin t1/2: pH 6.8; for SIF No Pancreatin t1/2: SIF without pancreatin
[5] = pediatric epilepsy patients receiving CBD orally; cited from earlier work
[6] = 1 μM, protein 1.25 mg/mL, pH 7.4, 37° C
[7] = 1 μM, protein 1.25 mg/mL, pH 7.4, 37° C, NADPH, UDPGA, PAPS
[8] = 1 μM, microsomal protein 1 mg/mL, pH 7.4, 37° C.

Compound	Teorell-Stenhagen Buffer pH 3.5 t1/2 [1] [h]	Teorell-Stenhagen Buffer pH 4.5 t1/2 [1] [h]	Teorell-Stenhagen Buffer pH 5.5 t1/2 [1] [h]	Teorell-Stenhagen Buffer pH 6.5 t1/2 [1] [h]	Teorell-Stenhagen Buffer pH 7.5 t1/2 [1] [h]	Teorell-Stenhagen Buffer pH 8.5 t1/2 [1] [h]	Human S9 EH (hepatic extraction ratio) [2, 6] [%]	Human S9 CLint [2, 7] [µL/min/mg]	Human S9 t1/2 [2, 7] [h]	half-life for de-etherification in S9 fraction ([2]; hepatic S9 fraction)	HLM CLint [3, 8] [µL/min/mg]	HLM EH (hepatic extraction ratio) [3, 8] [%]	HLM t1/2 [3, 8] [h]	stability in liver microsome extract [3]	Plasma stability Human t1/2 (Plasma Stability Assay) [h]	solubility in phosphate buffered saline (Solubility Assay - PBS)	Solubility (μM) in PBS 7.4 (Solubility Assay - PBS) [µM]	Solubility (μM) in T-S 7.5 (Solubility Assay - PBS) [µM]	SGF t1/2 [4] [h]	SGF No Pepsin t1/2 [4] [h]	further results
C=C(C)[C@@H]1CCC(C)=C[C@H]1c1c(O)cc(CCCCC)cc1OC [CBD Methyl Ether, CBD methyl ether]	>72	>72	>72	>72	>72	>72	21	1.9	4.77	about 5 hours	8.7	26	1.33	relatively stable	>6.67	good solubility	8.4 (≈ 2.76 µg/mL)	22 (≈ 7.23 µg/mL)	>6.67	>6.67	half-life of de-etherification in buffers at different pH's ([1]; Teorell-Stenhagen buffer pH 3.5-8.5): greater than 72 hours; SIF t1/2 [4]: >6.67 h; SIF No Pancreatin t1/2 [4]: >6.67 h
C=C(C)[C@@H]1CCC(C)=C[C@H]1c1c(O)cc(CCCCC)cc1O [CBD, cannabidiol, reference compound]	–	–	–	–	–	–	–	–	–	–	–	–	–	–	–	–	–	–	–	–	patients showing somnolence [5]: greater than 44%; CBD cyclized to mixture of Δ8-THC and Δ9-THC ([4]; in about 60 minutes, comparison in the SGF/SIF stability study): greater than 85%
C[C@]12CC[C@H]3[C@@H](CCC4=CC(=O)CC[C@@]43C)[C@@H]1CC[C@@H]2O [Testosterone, testosterone, reference compound]	–	–	–	–	–	–	87	–	–	–	–	73	–	–	–	–	–	–	–	–	microsomal CLint at 1 μM ([2]; human, hepatic S9 fraction, 1 μM, protein 1.25 mg/mL, pH 7.4, 37° C, NADPH, UDPGA, PAPS): 47 µL/min/mg; half-life at 1 μM ([2]; human, hepatic S9 fraction, 1 μM, protein 1.25 mg/mL, pH 7.4, 37° C, NADPH, UDPGA, PAPS, read-out: Human S9 t1/2): 0.483 h; half-life ([2]; human, hepatic S9 fraction, read-out: half-life of degradation in S9 fraction): ~0.483 h; microsomal CLint at 1 μM ([3]; human, liver microsomes, 1 μM, microsomal protein 1 mg/mL, pH 7.4, 37° C., read-out: HLM CLint): 69 µL/min/mg; half-life at 1 μM ([3]; human, liver microsomes, 1 μM, microsomal protein 1 mg/mL, pH 7.4, 37° C., read-out: HLM t1/2): 0.167 h
CBD difluoromethyl ether	10	14	11	11	11	8	31	3.2	2.88	about 3 hours	9.0	26	1.28	relatively stable	>6.67	good solubility	7.0	9.7	>6.67	>6.67	SIF t1/2 [4]: >6.67 h; SIF No Pancreatin t1/2 [4]: >6.67 h
